Holding throughout (assay): growth of human tumour cells (NCI), 48 h
In experiment [1] the test system is DMS 273 small cell lung.
Experiment [2] deals with RXF-631 renal.
The subject of experiment [3] is SNB-78 CNS.
The subject of experiment [4] is HOP-18 NSCLC.
The test system of experiment [5] is KM20L2 colon.
Experiment [6] relates to MDA-N.
In experiment [7] the test system is XF 498 CNS.

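Five concentrations, 48 hours, 96-well plates. Abbreviation: GI50, concentration required for 50% inhibition of growth. TGI marks complete inhibition of growth.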

`O=C(c1ccccc1)N1C2CCC1C(C(F)(F)F)=C2C(F)(F)F`: the TGI in experiment [1], in experiment [2], in experiment [3], in experiment [4] and in experiment [5] was more than 100 µM throughout.

For `N#Cc1ccccc1NC(=O)C(=O)c1c(O)c2ccccc2oc1=O`, in experiment [6], the TGI was more than 100 µM.

In the case of `NS(=O)(=O)c1ccc(NC2=CC(=O)C(=O)c3ccccc32)cc1`, the TGI in experiment [1], in experiment [3], in experiment [4] and in experiment [5] was more than 100 µM throughout.

Turning to `COc1c(C(=O)c2ccc([N+](=O)[O-])cc2)cc(C(C)(C)C)cc1C(C)(C)C`, the TGI in experiment [1] is more than 100 µM; in experiment [7], 55.1 µM; in experiment [3], more than 100 µM; in experiment [4], more than 100 µM; in experiment [5], more than 100 µM.

For `CC1CC(=O)Nc2ccccc2N1C(=O)CN1CCC(CCCCN(C)C)CC1` (stereo not given), the TGI in experiment [1], in experiment [2], in experiment [3], in experiment [4] and in experiment [5] was more than 100 µM in each case.

In experiment [6], `COc1cc(OC)c(/C=C\c2ccnc3ccccc23)c(OC)c1` had a TGI of 2.03 µM.

Regarding `O=C1CCC2CC(C(=O)c3ccccc3)CCC2CN1` (stereo not given) (tested in a mixture with another compound), the TGI in experiment [1], in experiment [3], in experiment [4] and in experiment [5] was more than 100 µM in each case.

For `NC(=O)c1ccc(NN=O)nc1`, in experiment [6], the TGI was more than 100 µM.

Take `C[C@]12CC[C@H](O)C[C@H]1CC[C@@H]1[C@@H]2CC[C@]2(C)[C@@H](C3=CC(=O)OC3)[C@@H](O)C[C@]12O`: the TGI in experiment [6] amounted to 5.7 µM.

For the compound `CC1C[C@H](C)CC(C(O)CC2CC(=O)N(Cc3ccccc3)C(=O)C2)C1O` (stereo not given in full), the TGI in experiment [1], in experiment [3], in experiment [4] and in experiment [5] was more than 100 µM throughout.

As for `CCCCCCCCOCC(O)COC(=O)CCCCCCC` (stereo not given), the TGI in experiment [1], in experiment [2], in experiment [4] and in experiment [5] was more than 100 µM in each case.

Regarding `CCOC(=O)CSC(=O)NCCCl`, the TGI in experiment [1], in experiment [3] and in experiment [5] was more than 100 µM each time.

Take `COC(=O)/C=C(\C(=O)OC)c1c2c3c(cc(OC)c(OC)c3c3ccccc13)CCN2C`: the TGI is 50.9 µM in experiment [1]; more than 100 µM in experiment [2]; more than 100 µM in experiment [3]; more than 100 µM in experiment [4]; more than 100 µM in experiment [5].

With `COc1ccc(C2CC(c3cc(C)ccc3O)=NC(N)=N2)cc1` (stereo not given), the TGI in experiment [1], in experiment [7], in experiment [3], in experiment [4] and in experiment [5] was more than 100 µM throughout.

Consider `CC1=CC(=C(c2ccc(N)cc2)c2ccc(N)cc2)C=CC1=N`, for which the TGI in experiment [7] was 10.3 µM; in experiment [3], 9.89 µM; in experiment [6] it was more than 40.9 µM; in experiment [5], 17.6 µM.

Consider `O=C(c1ccccc1)[C@H]1Nc2ccc(Cl)cc2C2c3ccccc3CC21` (stereo not given in full), for which the TGI was more than 100 µM in experiment [1]; 72.5 µM in experiment [7]; more than 100 µM in experiment [2]; more than 100 µM in experiment [3]; more than 100 µM in experiment [5].

As to `CC(=O)c1ccc(OCC(O)CO)cc1` (stereo not given), the TGI in experiment [1], in experiment [2], in experiment [3], in experiment [4] and in experiment [5] was more than 100 µM throughout.

In the case of `OCC(O)C(O)C(O)c1nn(-c2ccc(Cl)cc2)c2nc3cc(Cl)c(Cl)cc3nc12` (stereo not given), the TGI in experiment [1] was more than 100 µM; in experiment [7], 27.4 µM; in experiment [3], 76.9 µM; in experiment [4] it was more than 100 µM; in experiment [5], more than 100 µM.

`CC1(C)CCC2=C(O1)c1ccccc1C(=O)C2=O`: in experiment [6], the TGI was found to be 0.363 µM.

With `CNCc1cc(OC)ccc1-c1ccc(OC)c(OC)c1OC`, the TGI in experiment [1], in experiment [7], in experiment [2], in experiment [3], in experiment [4] and in experiment [5] was more than 100 µM throughout.

`COC(=O)C(=O)C(C(=O)C(=O)Nc1nc2ccc(C)cc2s1)c1nc2ccc([N+](=O)[O-])cc2[nH]c1=O` (stereo not given) displayed a TGI in experiment [6] of more than 100 µM.

Consider `CC(/C(=N\Nc1ccccc1)c1ccc(O)cc1)C1C(=O)Oc2ccccc21` (stereo not given), for which the TGI in experiment [1] and in experiment [5] was more than 100 µM in each case.

For `CCOC(=O)C1C2CCC(C2)C1(CCl)C(=O)OCC` (stereo not given), the TGI in experiment [1], in experiment [2], in experiment [4] and in experiment [5] was more than 100 µM throughout.

As for `C=CC(C1=CC(=O)C(OC)=CC1=O)c1ccccc1` (stereo not given), in experiment [6], the TGI stood at 31.6 µM.

The compound `CCN(CC)CCOc1ccccc1/C=C/c1noc2ccccc12` came in with a TGI in experiment [6] of 24.1 µM.

On to `NNC(=O)CNC(=O)c1ccc(Cl)cc1Cl`, for which the TGI in experiment [1], in experiment [7], in experiment [4] and in experiment [5] was more than 100 µM each time.

Consider `COC(=O)C(CC(C)C)NC(=O)NC12CC3CC(CC(F)(C3)C1)C2` (stereo not given), for which the TGI in experiment [2], in experiment [3] and in experiment [5] was more than 100 µM throughout.

Regarding `CCCCCCCCCCCCCC(=O)OCC1OC(n2cc(F)c(=O)[nH]c2=O)C(NC(=O)OCc2ccccc2)C(OC(=O)CCCCCCCCCCCCC)C1O` (stereo not given), the TGI in experiment [1], in experiment [7], in experiment [2], in experiment [3], in experiment [4] and in experiment [5] was more than 100 µM in each case.

In the case of `Cc1cccc2c1N(C(=O)/C=C\C(=O)O)C(c1c(C)[nH]c3ccccc13)C2` (stereo not given), the TGI was 40.6 µM in experiment [7], more than 100 µM in experiment [3] and more than 100 µM in experiment [5].

For the compound `CC[P+](C)(C)c1ccccc1`, the TGI in experiment [1] was more than 100 µM; in experiment [7], more than 100 µM; in experiment [3], more than 100 µM; in experiment [4], 49.8 µM; in experiment [5] it was more than 100 µM.

`COC(=O)/C(=N\Nc1nc(=S)[nH]n1N)C(C#N)c1ccccc1` (stereo not given): the TGI in experiment [3], in experiment [4] and in experiment [5] was more than 100 µM throughout.

For `N/N=C(\C(=O)Nc1ccc(Cl)cc1Cl)C(c1cnc2ccccc2n1)[N+](=O)[O-]` (stereo not given), the TGI in experiment [6] is more than 100 µM.

Take `O=CNc1ncn[nH]1`: the TGI in experiment [6] is more than 100 µM.

On to `CNC(=O)OCc1c2ccncc2c(C)c2c1[nH]c1ccccc12`, for which, in experiment [6], the TGI was found to be 1.73 µM.

Regarding `CC1=NOC(=O)/C1=C/c1cccc2ccccc12`, the TGI in experiment [1], in experiment [3], in experiment [4] and in experiment [5] was more than 100 µM throughout.

As for `CC(=O)Nc1cc(N(CCOS(C)(=O)=O)CCOS(C)(=O)=O)ccc1N=O`, the TGI in experiment [1], in experiment [7] and in experiment [5] was more than 100 µM each time.

As to `CN(C)CCNC(=O)C(C)(C)Oc1ccc(C(=O)c2ccc(Cl)cc2)cc1Cl`, in experiment [6], the GI50 was 6.48 µM and the TGI turned out to be 19.8 µM.

Consider `O=C(O)C[C@H]1CCCCC12CCOC2=O` (stereo not given in full), for which the TGI in experiment [1], in experiment [7], in experiment [2], in experiment [3], in experiment [4] and in experiment [5] was more than 100 µM in each case.

Values taken from PubChem BioAssay (NCI).
